Assay results reported in ChEMBL document CHEMBL3822442, “Synthesis and Pharmacological Characterization of Novel Glucagon-like Peptide-2 (GLP-2) Analogues with Low Systemic Clearance” (J Med Chem, 2016).
Activity calls are given as the source filed them. No cut-off for these calls is given here. Non-standard residues stand in square brackets, D forms with d. Residues, ends and D or L forms follow the SMILES beside them. ξ: configuration not given here. ξNle = CCCCC(N)C(=O)O

Experiments:
[1] = test system: Rattus norvegicus; test: Intestinotrophic activity in Sprague-Dawley rat assessed as increase in intestinal growth at 1000 nmol/kg, sc once daily through bolus administration for 5 days relative to control; type: functional
[2] = test system: HEK293; test: Selectivity ratio of EC50 for human GLP1R expressed in HEK293 cells to EC50 for human GLP2R expressed in HEK293; type: cell-based
[3] = target: T1, Glucagon-like peptide 2 receptor (Homo sapiens, UniProt O95838); test: Agonist activity at human GLP2R expressed in HEK293 cells after 5 hrs by luciferase reporter gene assay; type: cell-based
T1 sequence (O95838 whole entry): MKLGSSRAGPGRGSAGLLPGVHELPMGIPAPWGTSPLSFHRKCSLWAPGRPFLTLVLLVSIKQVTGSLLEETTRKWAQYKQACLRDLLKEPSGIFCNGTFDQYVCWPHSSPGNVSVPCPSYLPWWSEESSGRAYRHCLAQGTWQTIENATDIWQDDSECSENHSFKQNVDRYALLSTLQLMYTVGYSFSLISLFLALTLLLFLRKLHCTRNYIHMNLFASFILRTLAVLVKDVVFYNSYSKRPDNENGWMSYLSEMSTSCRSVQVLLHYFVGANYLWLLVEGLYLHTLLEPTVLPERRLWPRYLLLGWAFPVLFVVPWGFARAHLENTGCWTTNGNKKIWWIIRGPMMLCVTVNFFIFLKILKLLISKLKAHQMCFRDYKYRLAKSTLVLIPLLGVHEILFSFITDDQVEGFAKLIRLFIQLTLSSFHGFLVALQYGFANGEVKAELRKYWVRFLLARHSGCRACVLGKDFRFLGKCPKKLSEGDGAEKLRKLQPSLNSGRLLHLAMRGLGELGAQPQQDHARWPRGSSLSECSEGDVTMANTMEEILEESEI

[4] = Systemic clearance in Sprague-Dawley rat at 0.2 mg/kg, iv through cassette dosing measured up to 300 mins by LC/MS/MS analysis; type: ADME, organism-based; details: in vivo
[5] = target: Glucagon-like peptide 1 receptor (Homo sapiens, UniProt P43220); test: Agonist activity at human GLP1R expressed in HEK293 cells after 5 hrs by luciferase reporter gene assay; type: cell-based
[6] = Protein binding in rat plasma at 200 to 1000 ng/ml incubated for 15 mins by LC/MS/MS based ultracentrifugation method; type: ADME, cell-free; details: read-out: PPB (converted)
[7] = target: T2, Glucagon-like peptide 2 receptor (Rattus norvegicus, UniProt Q9Z0W0); test: Agonist activity at rat GLP2R expressed in HEK293 cells after 5 hrs by luciferase reporter gene assay; type: cell-based
T2 sequence (Q9Z0W0 whole entry): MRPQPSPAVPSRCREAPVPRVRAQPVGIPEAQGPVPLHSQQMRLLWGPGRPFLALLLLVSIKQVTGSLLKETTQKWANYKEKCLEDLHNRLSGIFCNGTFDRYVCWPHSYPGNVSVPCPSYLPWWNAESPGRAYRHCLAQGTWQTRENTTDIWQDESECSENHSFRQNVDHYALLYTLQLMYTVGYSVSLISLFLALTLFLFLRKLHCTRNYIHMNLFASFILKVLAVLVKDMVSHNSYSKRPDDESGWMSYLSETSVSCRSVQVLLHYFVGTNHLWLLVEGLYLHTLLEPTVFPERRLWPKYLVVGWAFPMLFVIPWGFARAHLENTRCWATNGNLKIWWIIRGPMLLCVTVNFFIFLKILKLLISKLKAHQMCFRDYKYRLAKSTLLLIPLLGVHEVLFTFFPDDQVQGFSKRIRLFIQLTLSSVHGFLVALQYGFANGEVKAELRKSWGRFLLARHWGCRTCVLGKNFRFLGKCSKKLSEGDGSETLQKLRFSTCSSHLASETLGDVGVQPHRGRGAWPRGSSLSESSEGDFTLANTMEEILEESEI

[8] = Half life in sc dosed human; type: ADME, organism-based; details: in vivo
[9] = target: Glucagon receptor (Homo sapiens) (UniProt P47871); test: Agonist activity at human GCGR expressed in HEK293 cells up to 1000 nM after 5 hrs by luciferase reporter gene assay; type: cell-based
Chain of Glucagon receptor (Homo sapiens) (P47871 whole entry): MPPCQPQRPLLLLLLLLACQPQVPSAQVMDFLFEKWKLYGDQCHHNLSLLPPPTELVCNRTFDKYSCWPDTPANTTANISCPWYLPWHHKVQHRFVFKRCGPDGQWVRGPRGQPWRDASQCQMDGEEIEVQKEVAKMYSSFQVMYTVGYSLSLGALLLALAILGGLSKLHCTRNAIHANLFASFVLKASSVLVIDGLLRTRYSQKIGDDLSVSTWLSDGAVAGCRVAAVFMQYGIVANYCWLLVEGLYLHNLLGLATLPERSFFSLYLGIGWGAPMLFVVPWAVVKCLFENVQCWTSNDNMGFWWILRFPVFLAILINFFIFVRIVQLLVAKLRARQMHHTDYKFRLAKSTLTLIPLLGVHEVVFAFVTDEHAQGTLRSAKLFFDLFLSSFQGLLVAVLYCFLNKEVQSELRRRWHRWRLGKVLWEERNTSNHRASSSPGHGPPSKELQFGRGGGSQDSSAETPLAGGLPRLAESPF

Chain of Glucagon-like peptide 1 receptor (P43220 whole entry): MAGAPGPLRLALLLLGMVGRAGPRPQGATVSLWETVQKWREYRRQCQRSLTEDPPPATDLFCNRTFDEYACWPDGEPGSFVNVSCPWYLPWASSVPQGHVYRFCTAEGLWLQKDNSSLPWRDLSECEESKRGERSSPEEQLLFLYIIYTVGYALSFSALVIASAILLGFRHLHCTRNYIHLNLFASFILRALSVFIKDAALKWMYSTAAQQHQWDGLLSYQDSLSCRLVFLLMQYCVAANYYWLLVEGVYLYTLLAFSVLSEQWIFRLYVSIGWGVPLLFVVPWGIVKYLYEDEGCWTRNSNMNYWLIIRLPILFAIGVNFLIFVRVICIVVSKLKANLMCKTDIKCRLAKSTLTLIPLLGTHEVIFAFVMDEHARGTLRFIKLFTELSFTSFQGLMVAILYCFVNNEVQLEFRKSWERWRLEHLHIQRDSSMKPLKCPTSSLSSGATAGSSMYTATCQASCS

Row | Structure (SMILES) | EC50 [3] [nM] | clearance [4] [L/h/kg] | EC50 [5] [nM] | fraction unbound at 0.25 h [6] | EC50 [7] [nM] | half-life [8] [h] | Activity [9] | Activity [1] [%] | Ratio EC50 [2]
1 | CCCC[C@H](NC(=O)[C@H](CCC(=O)O)NC(=O)[C@H](CC(=O)O)NC(=O)[C@H](CO)NC(=O)[C@H](Cc1ccccc1)NC(=O)[C@H](CO)NC(=O)CNC(=O)[C@H](CC(=O)O)NC(=O)CNC(=O)[C@@H](N)Cc1cnc[nH]1)C(=O)N[C@H](Cc1ccccc1)C(=O)N[C@H](C(=O)N[C@H](C(=O)N[C@@H](CC(C)C)C(=O)N[C@@H](CC(=O)O)C(=O)N[C@@H](CC(C)C)C(=O)N[C@@H](CC(C)C)C(=O)N[C@@H](C)C(=O)N[C@@H](C)C(=O)N[C@@H](CCCNC(=N)N)C(=O)N[C@@H](CC(=O)O)C(=O)N[C@@H](Cc1ccccc1)C(=O)N[C@H](C(=O)N[C@@H](CC(N)=O)C(=O)N[C@@H](Cc1c[nH]c2ccccc12)C(=O)N[C@@H](CC(C)C)C(=O)N[C@H](C(=O)N[C@@H](CCC(N)=O)C(=O)N[C@H](C(=O)N[C@@H](CCCCN)C(=O)N[C@H](C(=O)N[C@H](C(=O)N[C@@H](CC(=O)O)C(N)=O)[C@@H](C)O)[C@@H](C)CC)[C@@H](C)O)[C@@H](C)CC)[C@@H](C)CC)[C@@H](C)CC)[C@@H](C)O [listing 1 of 2 here] | – | – | – | – | – | – | – | 61.2 | –
2 | CCCC[C@H](NC(=O)[C@H](CCC(=O)O)NC(=O)[C@H](CC(=O)O)NC(=O)[C@H](CO)NC(=O)[C@H](Cc1ccccc1)NC(=O)[C@H](CO)NC(=O)CNC(=O)[C@H](CC(=O)O)NC(=O)CNC(=O)[C@@H](N)Cc1cnc[nH]1)C(=O)N[C@H](Cc1ccccc1)C(=O)N[C@H](C(=O)N[C@H](C(=O)N[C@@H](CC(C)C)C(=O)N[C@@H](CC(=O)O)C(=O)N[C@@H](CC(C)C)C(=O)N[C@@H](CC(C)C)C(=O)N[C@@H](C)C(=O)N[C@@H](C)C(=O)N[C@@H](CCCNC(=N)N)C(=O)N[C@@H](CC(=O)O)C(=O)N[C@@H](Cc1ccccc1)C(=O)N[C@H](C(=O)N[C@@H](CC(N)=O)C(=O)N[C@@H](Cc1c[nH]c2ccccc12)C(=O)N[C@@H](CC(C)C)C(=O)N[C@H](C(=O)N[C@@H](CCC(N)=O)C(=O)N[C@H](C(=O)N[C@@H](CCCCN)C(=O)N[C@H](C(=O)N[C@H](C(=O)N[C@@H](CC(=O)O)C(N)=O)[C@@H](C)O)[C@@H](C)CC)[C@@H](C)O)[C@@H](C)CC)[C@@H](C)CC)[C@@H](C)CC)[C@@H](C)O [listing 2 of 2 here] | 0.03 | – | > 1000 | 0.008 | 0.04 | – | – | – | –
3 | CC[C@H](C)[C@H](NC(=O)[C@H](Cc1ccccc1)NC(=O)[C@H](CC(=O)O)NC(=O)[C@H](CCCNC(=N)N)NC(=O)[C@H](C)NC(=O)[C@H](C)NC(=O)[C@H](CC(C)C)NC(=O)[C@H](CC(N)=O)NC(=O)[C@H](CC(=O)O)NC(=O)[C@H](CC(C)C)NC(=O)[C@@H](NC(=O)[C@@H](NC(=O)[C@H](CC(N)=O)NC(=O)[C@H](CCSC)NC(=O)[C@H](CCC(=O)O)NC(=O)[C@H](CC(=O)O)NC(=O)[C@H](CO)NC(=O)[C@H](Cc1ccccc1)NC(=O)[C@H](CO)NC(=O)CNC(=O)[C@H](CC(=O)O)NC(=O)CNC(=O)[C@@H](N)Cc1c[nH]cn1)[C@@H](C)O)[C@@H](C)CC)C(=O)N[C@@H](CC(N)=O)C(=O)N[C@@H](Cc1c[nH]c2ccccc12)C(=O)N[C@@H](CC(C)C)C(=O)N[C@H](C(=O)N[C@@H](CCC(N)=O)C(=O)N[C@H](C(=O)N[C@@H](CCCCN)C(=O)N[C@H](C(=O)N[C@H](C(=O)N[C@@H](CC(=O)O)C(=O)O)[C@@H](C)O)[C@@H](C)CC)[C@@H](C)O)[C@@H](C)CC [TEDUGLUTIDE] | – | – | > 1000 | 0.419 | 0.08 | 3 | – | 39 | –
4 | CCCCC(NC(=O)[C@H](CCC(=O)O)NC(=O)[C@H](CC(=O)O)NC(=O)[C@H](CO)NC(=O)[C@H](Cc1ccccc1)NC(=O)[C@H](CO)NC(=O)CNC(=O)[C@H](CC(=O)O)NC(=O)CNC(=O)[C@@H](N)Cc1cnc[nH]1)C(=O)N[C@@H](CC(N)=O)C(=O)N[C@H](C(=O)N[C@H](C(=O)N[C@@H](CC(C)C)C(=O)N[C@@H](CC(=O)O)C(=O)N[C@@H](CC(C)C)C(=O)N[C@@H](CC(C)C)C(=O)N[C@@H](C)C(=O)N[C@@H](C)C(=O)N[C@@H](CCCNC(=N)N)C(=O)N[C@@H](CC(=O)O)C(=O)N[C@@H](Cc1ccccc1)C(=O)N[C@H](C(=O)N[C@@H](CC(N)=O)C(=O)N[C@@H](Cc1c[nH]c2ccccc12)C(=O)N[C@@H](CC(C)C)C(=O)N[C@H](C(=O)N[C@@H](CCC(N)=O)C(=O)N[C@H](C(=O)N[C@@H](CCCCN)C(N)=O)[C@@H](C)O)[C@@H](C)CC)[C@@H](C)CC)[C@@H](C)CC)[C@@H](C)O (stereo not given in full) (H-HGDGSFSDE[ξNle]NTILDLLAARDFINWLIQTK-NH2) | 0.1 | 0.0504 | > 1000 | 0.013 | – | – | inactive | – | > 10000

Now from value to molecule, other results behind:

Row | EC50 [3] [nM] | clearance [4] [L/h/kg] | EC50 [5] [nM] | fraction unbound at 0.25 h [6] | EC50 [7] [nM] | half-life [8] [h] | Activity [9] | Structure (SMILES) | Activity [1] [%] | Ratio EC50 [2]
5 | 0.06 | 0.0102 | > 1000 | 0.016 | – | – | – | CCCCC(NC(=O)[C@H](CCC(=O)O)NC(=O)[C@H](CC(=O)O)NC(=O)[C@H](CO)NC(=O)[C@H](Cc1ccccc1)NC(=O)[C@H](CO)NC(=O)CNC(=O)[C@H](CC(=O)O)NC(=O)CNC(=O)[C@@H](N)Cc1cnc[nH]1)C(=O)N[C@H](Cc1ccccc1)C(=O)N[C@H](C(=O)N[C@H](C(=O)N[C@@H](CC(C)C)C(=O)N[C@@H](CC(=O)O)C(=O)N[C@@H](CC(C)C)C(=O)N[C@@H](CC(C)C)C(=O)N[C@@H](C)C(=O)N[C@@H](C)C(=O)N[C@@H](CCCNC(=N)N)C(=O)N[C@@H](CC(=O)O)C(=O)N[C@@H](Cc1ccccc1)C(=O)N[C@H](C(=O)N[C@@H](CC(N)=O)C(=O)N[C@@H](Cc1c[nH]c2ccccc12)C(=O)N[C@@H](CC(C)C)C(=O)N[C@H](C(=O)N[C@@H](CCC(N)=O)C(=O)N[C@H](C(=O)N[C@@H](CCCCN)C(=O)N[C@H](C(=O)N[C@H](C(=O)N[C@@H](CC(=O)O)C(=O)NCC(C)C)[C@@H](C)O)[C@@H](C)CC)[C@@H](C)O)[C@@H](C)CC)[C@@H](C)CC)[C@@H](C)CC)[C@@H](C)O (stereo not given in full) | – | > 16000
6 | 0.03 | 0.0168 | > 1000 | 0.005 | – | – | – | CCCC[C@H](NC(=O)[C@H](CCC(=O)O)NC(=O)[C@H](CC(=O)O)NC(=O)[C@H](CO)NC(=O)[C@H](Cc1ccccc1)NC(=O)[C@H](CO)NC(=O)CNC(=O)[C@H](CC(=O)O)NC(=O)CNC(=O)[C@@H](N)Cc1cnc[nH]1)C(=O)N[C@H](Cc1ccccc1)C(=O)N[C@H](C(=O)N[C@H](C(=O)N[C@@H](CC(C)C)C(=O)N[C@@H](CC(=O)O)C(=O)N[C@@H](CC(C)C)C(=O)N[C@@H](CC(C)C)C(=O)N[C@@H](C)C(=O)N[C@@H](C)C(=O)N[C@@H](CCCNC(=N)N)C(=O)N[C@@H](CC(=O)O)C(=O)N[C@@H](Cc1ccccc1)C(=O)N[C@H](C(=O)N[C@@H](CC(N)=O)C(=O)N[C@@H](Cc1c[nH]c2ccccc12)C(=O)N[C@@H](CC(C)C)C(=O)N[C@H](C(=O)N[C@@H](CCC(N)=O)C(=O)N[C@H](C(=O)N[C@@H](CCCCN)C(=O)N[C@H](C(=O)N[C@H](C(=O)N[C@@H](CC(=O)O)C(=O)O)[C@@H](C)O)[C@@H](C)CC)[C@@H](C)O)[C@@H](C)CC)[C@@H](C)CC)[C@@H](C)CC)[C@@H](C)O | – | –
